From ChEMBL document CHEMBL3414511, “Synthesis of a novel class of substituted benzothiophene or benzofuran derivatives as BMP-2 up-regulators and evaluation of the BMP-2-up-regulating effects in vitro and the effects on glucocorticoid-induced osteoporosis in rats” (Eur J Med Chem, 2015)
Calls of active or inactive are those of the source. The rule behind the calls is not given here.

Experiments:
[1] = test system: Rattus norvegicus; test: Toxicity in glucocorticoid-induced Wistar rat osteoporosis model assessed as white blood cells at 30 mg/kg/day, po administered six times a week for 3 months (reference value: 6.28 +/- 2.78 x 10^9/L); type: organism-based; set-up: route oral; details: in vivo
[2] = test system: Rattus norvegicus; test: Toxicity in glucocorticoid-induced Wistar rat osteoporosis model assessed as lymph level at 30 mg/kg/day, po administered six times a week for 3 months (reference value: 50.35 +/- 12.96%); type: organism-based; set-up: route oral; details: in vivo
[3] = test system: Rattus norvegicus; test: Toxicity in glucocorticoid-induced Wistar rat osteoporosis model assessed as neutrophilic granulocytes level at 30 mg/kg/day, po administered six times a week for 3 months (reference value: 31.95 +/- 8.33%); type: organism-based; set-up: route oral; details: in vivo
[4] = test system: Rattus norvegicus; test: Toxicity in glucocorticoid-induced Wistar rat osteoporosis model assessed as effect on red blood cells at 30 mg/kg/day, po administered six times a week for 3 months; type: organism-based; set-up: route oral; details: in vivo
[5] = test system: Rattus norvegicus; test: Toxicity in glucocorticoid-induced Wistar rat osteoporosis model assessed as effect on hemoglobin at 30 mg/kg/day, po administered six times a week for 3 months; type: organism-based; set-up: route oral; details: in vivo
[6] = test system: Rattus norvegicus; test: Toxicity in glucocorticoid-induced Wistar rat osteoporosis model assessed as effect on red blood cell specific volume at 30 mg/kg/day, po administered six times a week for 3 months; type: organism-based; set-up: route oral; details: in vivo
[7] = test system: Rattus norvegicus; test: Toxicity in glucocorticoid-induced Wistar rat osteoporosis model assessed as effect on mean corpuscular volume at 30 mg/kg/day, po administered six times a week for 3 months; type: organism-based; set-up: route oral; details: in vivo
[8] = test system: Rattus norvegicus; test: Toxicity in glucocorticoid-induced Wistar rat osteoporosis model assessed as effect on mean corpuscular hemoglobin concentration at 30 mg/kg/day, po administered six times a week for 3 months; type: organism-based; set-up: route oral; details: in vivo
[9] = test system: Rattus norvegicus; test: Toxicity in glucocorticoid-induced Wistar rat osteoporosis model assessed as effect on red blood cell distribution width at 30 mg/kg/day, po administered six times a week for 3 months; type: organism-based; set-up: route oral; details: in vivo
[10] = test system: Rattus norvegicus; test: Toxicity in glucocorticoid-induced Wistar rat osteoporosis model assessed as effect on platelets at 30 mg/kg/day, po administered six times a week for 3 months; type: organism-based; set-up: route oral; details: in vivo
[11] = Upregulation of BMP-2 expression in mouse MC3T3-E1 cells at 4 uM after 24 hrs by luciferase reporter gene assay relative to control; type: functional, cell-based
[12] = test system: Rattus norvegicus; test: Toxicity in glucocorticoid-induced Wistar rat osteoporosis model assessed as aspartate transaminase level at 30 mg/kg/day, po administered six times a week for 3 months (reference value: 177.55 +/- 116.98 U/L); type: organism-based; set-up: route oral; details: in vivo
[13] = test system: Rattus norvegicus; test: Toxicity in glucocorticoid-induced Wistar rat osteoporosis model assessed as alanine transaminase level at 30 mg/kg/day, po administered six times a week for 3 months (reference value: 43.73 +/- 36.21 U/L); type: organism-based; set-up: route oral; details: in vivo
[14] = test system: Rattus norvegicus; test: Toxicity in glucocorticoid-induced Wistar rat osteoporosis model assessed as triglycerides level at 30 mg/kg/day, po administered six times a week for 3 months (reference value: 1.13 +/- 0.69 mmol/L); type: organism-based; set-up: route oral; details: in vivo
[15] = test system: Rattus norvegicus; test: Toxicity in glucocorticoid-induced Wistar rat osteoporosis model assessed as effect on total bilirubin level at 30 mg/kg/day, po administered six times a week for 3 months; type: organism-based; set-up: route oral; details: in vivo
[16] = test system: Rattus norvegicus; test: Toxicity in glucocorticoid-induced Wistar rat osteoporosis model assessed as effect on total protein level at 30 mg/kg/day, po administered six times a week for 3 months; type: organism-based; set-up: route oral; details: in vivo
[17] = test system: Rattus norvegicus; test: Toxicity in glucocorticoid-induced Wistar rat osteoporosis model assessed as effect on albumin level at 30 mg/kg/day, po administered six times a week for 3 months; type: organism-based; set-up: route oral; details: in vivo
[18] = test system: Rattus norvegicus; test: Toxicity in glucocorticoid-induced Wistar rat osteoporosis model assessed as effect on blood urea nitrogen level at 30 mg/kg/day, po administered six times a week for 3 months; type: organism-based; set-up: route oral; details: in vivo
[19] = test system: Rattus norvegicus; test: Toxicity in glucocorticoid-induced Wistar rat osteoporosis model assessed as effect on creatinine level at 30 mg/kg/day, po administered six times a week for 3 months; type: organism-based; set-up: route oral; details: in vivo
[20] = test system: Rattus norvegicus; test: Toxicity in glucocorticoid-induced Wistar rat osteoporosis model assessed as effect on glucose level at 30 mg/kg/day, po administered six times a week for 3 months; type: organism-based; set-up: route oral; details: in vivo
[21] = Acute toxicity in po dosed Kunming mouse administered for 3 days measured during compound dosing and following 14 days; type: organism-based; details: in vivo
[22] = test system: Rattus norvegicus; test: Antiosteoporotic activity in glucocorticoid-induced Wistar rat osteoporosis model assessed as increase in trabecula number at 30 mg/kg/day, po administered six times a week for 3 months by toluidine blue staining-based light microscopic analysis relative to dexamethasone; type: functional, organism-based
[23] = test system: Rattus norvegicus; test: Antiosteoporotic activity in glucocorticoid-induced Wistar rat osteoporosis model assessed as increase in trabecula thickness at 30 mg/kg/day, po administered six times a week for 3 months by toluidine blue staining-based light microscopic analysis relative to dexamethasone; type: functional, organism-based
[24] = test system: Rattus norvegicus; test: Antiosteoporotic activity in glucocorticoid-induced Wistar rat osteoporosis model assessed as increase in trabecula area at 30 mg/kg/day, po administered six times a week for 3 months by toluidine blue staining-based light microscopic analysis relative to dexamethasone; type: functional, organism-based
[25] = test system: Rattus norvegicus; test: Antiosteoporotic activity in glucocorticoid-induced Wistar rat osteoporosis model assessed as increase in trabecula connectivity at 30 mg/kg/day, po administered six times a week for 3 months by toluidine blue staining-based light microscopic analysis relative to dexamethasone; type: functional, organism-based
[26] = test system: Rattus norvegicus; test: Antiosteoporotic activity in glucocorticoid-induced Wistar rat osteoporosis model assessed as trabecular bone volume at 30 mg/kg/day, po administered six times a week for 3 months by fluorescence assay (reference value: 33.09 +/- 5.15%); type: functional, Trabecula
[27] = test system: Rattus norvegicus; test: Antiosteoporotic activity in glucocorticoid-induced Wistar rat osteoporosis model assessed as trabecula formation surface at 30 mg/kg/day, po administered six times a week for 3 months by fluorescence assay (reference value: 7.82 +/- 2.46%); type: functional
[28] = test system: Rattus norvegicus; test: Antiosteoporotic activity in glucocorticoid-induced Wistar rat osteoporosis model assessed as trabecula resorption surface at 30 mg/kg/day, po administered six times a week for 3 months by fluorescence assay (reference value: 7.22 +/- 2.04%); type: functional
[29] = test system: Rattus norvegicus; test: Antiosteoporotic activity in glucocorticoid-induced Wistar rat osteoporosis model assessed as mineral apposition rate at 30 mg/kg/day, po administered six times a week for 3 months by fluorescence assay (reference value: 1.06 +/- 0.27 micrometer/day); type: functional
[30] = test system: Mus musculus; test: Acute toxicity in Kunming mouse assessed as behavioral changes at 500 mg/kg, po administered for 3 days measured during compound dosing and following 14 days; type: organism-based; set-up: dose 500 mg/kg, route oral; details: in vivo, 336 h
[31] = test system: Mus musculus; test: Acute toxicity in Kunming mouse assessed as shiny fur at 500 mg/kg, po administered for 3 days measured during compound dosing and following 14 days; type: organism-based; set-up: dose 500 mg/kg, route oral; details: in vivo, 336 h
[32] = test system: Mus musculus; test: Acute toxicity in Kunming mouse assessed as behavioral changes at 700 mg/kg, po administered for 3 days measured during compound dosing and following 14 days; type: organism-based; set-up: dose 700 mg/kg, route oral; details: in vivo, 336 h
[33] = test system: Mus musculus; test: Acute toxicity in Kunming mouse assessed as shiny fur at 700 mg/kg, po administered for 3 days measured during compound dosing and following 14 days; type: organism-based; set-up: dose 700 mg/kg, route oral; details: in vivo, 336 h
[34] = test system: Rattus norvegicus; test: Antiosteoporotic activity in glucocorticoid-induced Wistar rat osteoporosis model assessed as densed trabecula at 30 mg/kg/day, po administered six times a week for 3 months by toluidine blue staining-based light microscopic analysis relative to dexamethasone; type: functional, organism-based

SMILES	Activity [1]	Activity [2]	Activity [3]	Activity [4]	Activity [5]	Activity [6]	Activity [7]	Activity [8]	Activity [9]	Activity [10]	Activity [12]	Activity [13]	Activity [14]	Activity [15]	Activity [16]	Activity [17]	Activity [18]	Activity [19]	Activity [20]	Activity [26]	other results
CCOC(=O)c1cc2ccc(OC)cc2o1	2.83 ×10⁹ /L	46.18%	38.96%	Non-toxic	Non-toxic	Non-toxic	Non-toxic	Non-toxic	Non-toxic	Non-toxic	110.08 U/L	27.67 U/L	0.38 mmol/L	Non-toxic	Non-toxic	Non-toxic	Non-toxic	Non-toxic	Non-toxic	30.8%	Activity [11]: 89.4%; LD50 at 336 h [21]: > 500 mg/kg; Activity [22]: Active; Activity [23]: Active; Activity [24]: Active; Activity [25]: Active; Activity [27]: 7.13%; Activity [28]: 8.23%; Activity [29]: 1.29 micrometer/day; Activity [30]: Non-toxic; Activity [31]: Non-toxic
CCOC(=O)c1cc2ccc(C(=O)OC)cc2s1	3.03 ×10⁹ /L	46.39%	40.03%	Non-toxic	Non-toxic	Non-toxic	Non-toxic	Non-toxic	Non-toxic	Non-toxic	124.42 U/L	26.25 U/L	0.36 mmol/L	Non-toxic	Non-toxic	Non-toxic	Non-toxic	Non-toxic	Non-toxic	28.61%	Activity [11]: 123%; LD50 at 336 h [21]: > 700 mg/kg; Activity [22]: Active; Activity [23]: Active; Activity [24]: Active; Activity [25]: Active; Activity [27]: 6.69%; Activity [28]: 8.92%; Activity [29]: 1.13 micrometer/day; Activity [32]: Non-toxic; Activity [33]: Non-toxic
CCOC(=O)c1ccc2cc(C(=O)/C=C/c3ccccc3)sc2c1	2.83 ×10⁹ /L	43.43%	41.98%	Non-toxic	Non-toxic	Non-toxic	Non-toxic	Non-toxic	Non-toxic	Non-toxic	103.08 U/L	27 U/L	0.29 mmol/L	Non-toxic	Non-toxic	Non-toxic	Non-toxic	Non-toxic	Non-toxic	25.2%	Activity [11]: 85.9%; LD50 at 336 h [21]: > 500 mg/kg; Activity [22]: Active; Activity [23]: Active; Activity [24]: Active; Activity [25]: Active; Activity [27]: 6.98%; Activity [28]: 8.58%; Activity [29]: 1.26 micrometer/day; Activity [30]: Non-toxic; Activity [31]: Non-toxic
CC(=O)c1cc2ccccc2s1	3.12 ×10⁹ /L	39.85%	43.25%	Non-toxic	Non-toxic	Non-toxic	Non-toxic	Non-toxic	Non-toxic	Non-toxic	129.83 U/L	35.25 U/L	0.46 mmol/L	Non-toxic	Non-toxic	Non-toxic	Non-toxic	Non-toxic	Non-toxic	31.57%	Activity [22]: Active; Activity [23]: Active; Activity [24]: Active; Activity [25]: Active; Activity [27]: 7.36%; Activity [28]: 8.36%; Activity [29]: 1.24 micrometer/day
CCOC(=O)c1cc2cc3c(cc2s1)OCO3	3.27 ×10⁹ /L	46.29%	41.49%	Non-toxic	Non-toxic	Non-toxic	Non-toxic	Non-toxic	Non-toxic	Non-toxic	114.82 U/L	28.27 U/L	0.34 mmol/L	Non-toxic	Non-toxic	Non-toxic	Non-toxic	Non-toxic	Non-toxic	22.07%	LD50 at 336 h [21]: > 500 mg/kg; Activity [34]: Active; Activity [27]: 5.72%; Activity [28]: 9.43%; Activity [29]: 0.95 micrometer/day; Activity [30]: Non-toxic; Activity [31]: Non-toxic
CC(=O)c1cc2cc(C(=O)O)ccc2s1	3.31 ×10⁹ /L	36.73%	47.71%	Non-toxic	Non-toxic	Non-toxic	Non-toxic	Non-toxic	Non-toxic	Non-toxic	103.17 U/L	26.67 U/L	0.62 mmol/L	Non-toxic	Non-toxic	Non-toxic	Non-toxic	Non-toxic	Non-toxic	23.13%	Activity [11]: 93.2%; LD50 at 336 h [21]: > 500 mg/kg; Activity [34]: Active; Activity [27]: 5.03%; Activity [28]: 10.3%; Activity [29]: 1.03 micrometer/day; Activity [30]: Non-toxic; Activity [31]: Non-toxic
